In the NIST ThermoML archive (doi:10.1016/j.jct.2013.09.043):
Numbers after ± are expanded uncertainties.

Columns and labels:
[1] = xn = mol fraction of the nth substance listed; conditions: 101 kPa, Liquid; for viscosity: Capillary tube (Ostwald / Ubbelohde) method; for mass density: Vibrating tube method
[2] = 101 kPa, Liquid; for viscosity: Capillary tube (Ostwald / Ubbelohde) method; for mass density: Vibrating tube method

NC=O [formamide] + CCCCC(C)O
[1], x1 = 1
Conditions	mass density [kg/m3]	viscosity [mPa·s]
298.15 K	1129 ± 1	3.305 ± 0.13
303.15 K	1125.1 ± 1	2.975 ± 0.12
308.15 K	1120.98 ± 1	2.64 ± 0.11
313.15 K	1116.85 ± 1	2.42 ± 0.098

CC(C)O [propan-2-ol] + NC=O
[1], x2 = 0
Conditions	mass density [kg/m3]	viscosity [mPa·s]
298.15 K	780.95 ± 1	2.077 ± 0.084
303.15 K	776.79 ± 1	1.787 ± 0.072
308.15 K	772.39 ± 1	1.558 ± 0.063
313.15 K	767.76 ± 1	1.351 ± 0.055

NC=O [formamide] + CCCCCC(C)O
[1], x1 = 1
Conditions	mass density [kg/m3]	viscosity [mPa·s]
298.15 K	1129 ± 1	3.305 ± 0.13
303.15 K	1125.1 ± 1	2.975 ± 0.12
308.15 K	1120.98 ± 1	2.64 ± 0.11
313.15 K	1116.85 ± 1	2.42 ± 0.098

CCCCC(C)O (stereo not drawn) [2-hexanol]
[2]
Conditions	mass density [kg/m3]	viscosity [mPa·s]
298.15 K	810.14 ± 1	4.101 ± 0.17
303.15 K	806.13 ± 1	3.411 ± 0.14
308.15 K	802.06 ± 1	2.819 ± 0.12
313.15 K	797.96 ± 1	2.219 ± 0.09

CC(C)O [propan-2-ol]
[2]
Conditions	mass density [kg/m3]	viscosity [mPa·s]
298.15 K	780.95 ± 1	2.077 ± 0.084
303.15 K	776.79 ± 1	1.787 ± 0.072
308.15 K	772.39 ± 1	1.558 ± 0.063
313.15 K	767.76 ± 1	1.351 ± 0.055

CCC(C)O (stereo not drawn) [butan-2-ol] + NC=O
[1], x2 = 0
Conditions	mass density [kg/m3]	viscosity [mPa·s]
298.15 K	803.09 ± 1	3.034 ± 0.12
303.15 K	798.89 ± 1	2.527 ± 0.1
308.15 K	795.04 ± 1	2.125 ± 0.086
313.15 K	790.15 ± 1	1.798 ± 0.073

CCCCCC(C)O (stereo not drawn) [2-heptanol]
[2]
Conditions	mass density [kg/m3]	viscosity [mPa·s]
298.15 K	813.38 ± 1	5.296 ± 0.21
303.15 K	809.5 ± 1	4.315 ± 0.17
308.15 K	805.72 ± 1	3.535 ± 0.14
313.15 K	801.46 ± 1	2.96 ± 0.12

CCCC(C)O (stereo not drawn) [pentan-2-ol]
[2]
Conditions	mass density [kg/m3]	viscosity [mPa·s]
298.15 K	805.05 ± 1	3.423 ± 0.14
303.15 K	800.88 ± 1	2.834 ± 0.12
308.15 K	796.89 ± 1	2.348 ± 0.095
313.15 K	792.62 ± 1	1.979 ± 0.08

NC=O [formamide] + CCCC(C)O
[1], x1 = 1
Conditions	mass density [kg/m3]	viscosity [mPa·s]
298.15 K	1129 ± 1	3.305 ± 0.13
303.15 K	1125.1 ± 1	2.975 ± 0.12
308.15 K	1120.98 ± 1	2.64 ± 0.11
313.15 K	1116.85 ± 1	2.42 ± 0.098

NC=O [formamide]
[2]
Conditions	mass density [kg/m3]	viscosity [mPa·s]
298.15 K	1129 ± 1	3.305 ± 0.13
303.15 K	1125.1 ± 1	2.975 ± 0.12
308.15 K	1120.98 ± 1	2.64 ± 0.11
313.15 K	1116.85 ± 1	2.42 ± 0.098

CCC(C)O (stereo not drawn) [butan-2-ol]
[2]
Conditions	mass density [kg/m3]	viscosity [mPa·s]
298.15 K	803.09 ± 1	3.034 ± 0.12
303.15 K	798.89 ± 1	2.527 ± 0.1
308.15 K	795.04 ± 1	2.125 ± 0.086
313.15 K	790.15 ± 1	1.798 ± 0.073
